In patent US20220280490A1, “TREATMENT OF FRAGILE X SYNDROME” (HEALX LTD, priority 2019, published 2022):

How the values were obtained:
Type in all cases: in vivo, mouse
Conditions in all cases: 12 mg/kg ibudilast, compared with WT vehicle
[1] = system: Fmr1 KO2 mice; test: Nesting
From the text: (§1) Fmr1 knockout 2 (Fmr1 K02) mice were generated by deletion of the promoter and first exon of Fmr1. The Fmr1 KO2 it is both, protein and mRNA null. In this study we used Fmr1 KO2 and wild-type (WT) littermates generated on a C57BL/6J background and repeatedly backcrossed onto a C57BL/6J background for more than eight generations.
(§2) There were four treatment groups per compound in the study with 10 male mice used per treatment group (all at 8 weeks of age): Group 1: wild-type littermate mice treated with vehicle (WT-Veh), Group 2: Fmr1 KO2 mice treated with vehicle (KO-Veh), Group 3: Fmr1 KO2 mice treated with 12 mg/kg ibudilast (KO-ibudilast).
(§3) For experiments, all mice were tested once in the same apparatus. Prior to testing, mice were placed in the apparatus for some minutes before the experiment. The apparatus was cleaned with moist and dry tissues before testing each mouse. […] We assessed weight loss, fur loss, walking, eyes open, eye discharges and general behavior.
The test was performed in individual cages. […] Mice were placed individually into the nesting cages 1 hr. before the dark phase, and the results were assessed the next morning. Nest building was scored on a 5 point scale. […]
(§4) Data were analyzed by one-way ANOVA with a Dunnett's multiple comparison post hoc test in which WT Vehicle group was used as reference and compared with all the other groups

[2] = system: Fmr1 KO2 mice; test: Contextual fear conditioning
From the text: as §1, §2
For experiments, all mice were tested once in the same apparatus. Prior to testing, mice were placed in the apparatus for some minutes before the experiment. The apparatus was cleaned with moist and dry tissues before testing each mouse. The aim was to create a low but constant background mouse odor for all experimental subjects. Testers were blind to the genotype and treatment during all testing and data analysis. We assessed weight loss, fur loss, walking, eyes open, eye discharges and general behavior. […]
as §4

[3] = system: Fmr1 KO2 mice; test: Three-chambered sociability task (social interaction)
From the text: as §1, §2, §3
In the three-chambered sociability task, a subject mouse was evaluated for its exploration of a novel social stimulus (novel mouse). […] The time spent exploring the novel mice was scored as exploration ratio.
as §4

[4] = system: Fmr1 KO2 mice; test: Open field (hyperactivity)
From the text: as §1, §2
For experiments, all mice were tested once in the same apparatus. Prior to testing, mice were placed in the apparatus for some minutes before the experiment. […] We assessed weight loss, fur loss, walking, eyes open, eye discharges and general behavior.
The open-field apparatus was used to test hyperactivity. […] The number of squares entered by the whole body (locomotor activity) was counted. The movement of the mouse around the field was recorded with a video tracking device for 3 min (version NT4.0, Viewpoint).
as §4

CC(C)C(=O)c1c(C(C)C)nn2ccccc12 [ibudilast, 2-methyl-1-(2-propan-2-ylpyrazolo[1,5-a]pyridin-3-yl)propan-1-one]
fully rescued: nesting (nest building score) [1] | fear conditioning (freezing response) [2] | sociability (exploration ratio) [3] | open field (hyperactivity, locomotor activity) [4]
